# Source: US8895745B2, “Bicyclic heterocyclic compounds as FGFR inhibitors” (Astex Therapeutics Limited, priority 2006, dated 2014)
# Where a name gives a salt, the structure may show the parent alone.
# Test system: LP-1 cell line
# Test: Cell-based pERK ELISA method, LP-1 cells
# Conditions: Homo sapiens, LP-1, read-out: IC50 less than 1 μM or at least 50% inhibition at a concentration of 1 μM, LP-1 pERK ELISA
row,SMILES,IC50
1,"CC(=O)Nc1cccc(-c2cnc3cc(-c4ccnc(N5CCN(C)CC5)c4)ccn23)c1 [Example 62, N-(3-{7-[2-(4-Methyl-piperazin-1-yl)-pyridin-4-yl]-imidazo[1,2-a]pyridin-3-yl}-phenyl)-acetamide]",< 1 µM
2,"CCC(=O)Nc1cccc(-c2cnc3cc(-c4ccc(F)cc4)ccn23)c1 [Example 64, N-{3-[7-(4-Fluoro-phenyl)-imidazo[1,2-a]pyridin-3-yl]-phenyl}-propionamide]",< 1 µM
3,"CC(=O)Nc1cccc(-c2cnc3cc(-c4ccc(OCC(O)CO)cc4)ccn23)c1 (centres unmarked) [Example 65, N-(3-{7-[4-(2,3-Dihydroxy-propoxy)-phenyl]-imidazo[1,2-a]pyridin-3-yl}-phenyl)-acetamide]",< 1 µM
4,"CCCC(=O)Nc1cccc(-c2cnc3cc(-c4ccc(F)cc4)ccn23)c1 [Example 66, N-{3-[7-(4-Fluoro-phenyl)-imidazo[1,2-a]pyridin-3-yl]-phenyl}-butyramide]",< 1 µM
5,"NCC(=O)Nc1cccc(-c2cnc3cc(-c4ccc(F)cc4)ccn23)c1 [Example 67, 2-Amino-N-{3-[7-(4-fluoro-phenyl)-imidazo[1,2-a]pyridin-3-yl]-phenyl}-acetamide formate salt]",< 1 µM
6,"COc1cc(NC(C)=O)cc(-c2cnc3cc(-c4cccc(CN5CCOCC5)c4)ccn23)c1 [Example 78, N-{3-Methoxy-5-[7-(3-morpholin-4-ylmethyl-phenyl)-imidazo[1,2-a]pyridin-3-yl]-phenyl}-acetamide]",< 1 µM
7,"CCNC(=O)Nc1cccc(-c2cnc3cc(-c4cccc(C(=O)N5CCN(C)CC5)c4)ccn23)c1 [Example 79, 1-Ethyl-3-(3-{7-[3-(4-methyl-piperazine-1-carbonyl)-phenyl]-imidazo[1,2-a]pyridin-3-yl}-phenyl)-urea]",< 1 µM
8,"CCNC(=O)Nc1cccc(-c2cnc3cc(-c4ccc(N(C)C)nc4)ccn23)c1 [Example 80, 1-{3-[7-(6-Dimethylamino-pyridin-3-yl)-imidazo[1,2-a]pyridin-3-yl]-phenyl}-3-ethyl-urea formate salt]",< 1 µM
9,"CCNC(=O)Nc1cccc(-c2cnc3cc(-c4ccc(C(=O)N5CCN(C)CC5)cc4)ccn23)c1 [Example 81, 1-Ethyl-3-(3-{7-[4-(4-methyl-piperazine-1-carbonyl)-phenyl]-imidazo[1,2-a]pyridin-3-yl}-phenyl)-urea]",< 1 µM
10,"CCNC(=O)Nc1cccc(-c2cnc3cc(-c4ccc(CN5CCC5)cc4)ccn23)c1 [Example 82, 1-{3-[7-(4-Azetidin-1-ylmethyl-phenyl)-imidazo[1,2-a]pyridin-3-yl]-phenyl}-3-ethyl-urea]",< 1 µM
11,"CCNC(=O)Nc1cccc(-c2cnc3cc(-c4cccc(OCCOC)c4)ccn23)c1 [Example 83, 1-Ethyl-3-(3-{7-[3-(2-methoxy-ethoxy)-phenyl]-imidazo[1,2-a]pyridin-3-yl}-phenyl)-urea]",< 1 µM
12,"CCNC(=O)Nc1cccc(-c2cnc3cc(-c4cnn(C)c4)ccn23)c1 [Example 94, 1-Ethyl-3-{3-[7-(1-methyl-1H-pyrazol-4-yl)-imidazo[1,2-a]pyridin-3-yl]-phenyl}-urea]",< 1 µM
13,"CCNC(=O)Nc1cccc(-c2cnc3cc(-c4ccc(=O)n(C)c4)ccn23)c1 [Example 95, 1-Ethyl-3-{3-[7-(1-methyl-6-oxo-1,6-dihydro-pyridin-3-yl)-imidazo[1,2-a]pyridin-3-yl]-phenyl}-urea]",< 1 µM
14,"CC(=O)Nc1cccc(-c2cnc3ccc(-c4csc5ccccc45)cn23)c1 [Example 103, N-[3-(6-Benzo[b]thiophen-3-yl-imidazo[1,2-a]pyridin-3-yl)-phenyl]-acetamide]",< 1 µM
15,"CC(=O)Nc1cccc(-c2cnc3ccc(-c4ccoc4)cn23)c1 [Example 104, N-[3-(6-Furan-3-yl-imidazo[1,2-a]pyridin-3-yl)-phenyl]-acetamide]",< 1 µM

# The next lines start with the values.
row,IC50,SMILES
1,< 1 µM,"COC1CCCN(c2ccn3c(-c4cccc(NC(=O)NCC(F)(F)F)c4)cnc3c2)C1 (racemic) [Example 203, (±)-1-{3-[7-(3-Methoxy-piperidin-1-yl)-imidazo[1,2-a]pyridin-3-yl]-phenyl}-3-(2,2,2-trifluoro-ethyl)-urea]"
2,< 1 µM,"CC(=O)Nc1cccc(-c2cnc3cc(-c4ccccc4)ccn23)c1 [Example 2, N-[3-(7-Phenyl-imidazo[1,2-a]pyridin-3-yl)-phenyl]-acetamide hydro-chloride salt]"
3,< 1 µM,"CC(=O)Nc1cccc(-c2cnc3cc(-c4ccc(N5CCOCC5)cc4)ccn23)c1 [Example 5, N-{3-[7-(4-Morpholin-4-yl-phenyl)-imidazo[1,2-a]pyridin-3-yl]-phenyl}-acetamide]"
4,< 1 µM,"CC(=O)Nc1cccc(-c2cnc3cc(-c4ccncc4)ccn23)c1 [Example 6, N-[3-(7-Pyridin-4-yl-imidazo[1,2-a]pyridin-3-yl)-phenyl]-acetamide]"
5,< 1 µM,"CC(=O)Nc1cccc(-c2cnc3cc(-c4ccc(F)cc4)ccn23)c1 [Example 7, N-{3-[7-(4-Fluoro-phenyl)-imidazo[1,2-a]pyridin-3-yl]-phenyl}-acetamide]"
6,< 1 µM,"CC(=O)Nc1cccc(-c2cnc3cc(-c4cccc(CO)c4)ccn23)c1 [Example 8, N-{3-[7-(3-Hydroxymeth-yl-phenyl)-imidazo[1,2-a]pyridin-3-yl]-phenyl}-acetamide]"
7,< 1 µM,"CC(=O)Nc1cccc(-c2cnc3cc(-c4cccc(CN5CCOCC5)c4)ccn23)c1 [Example 9, N-{3-[7-(3-Morpholin-4-ylmethyl-phenyl)-imidazo[1,2-a]pyridin-3-yl]-phenyl}-acetamide]"
8,< 1 µM,"CC(=O)Nc1cccc(-c2cnc3cc(-c4ccc(CN5CCOCC5)cc4)ccn23)c1 [Example 10, N-{3-[7-(4-Morpholin-4-ylmethyl-phenyl)-imidazo[1,2-a]pyridin-3-yl]-phenyl}-acetamide hydro-chloride salt]"
9,< 1 µM,"CC(=O)Nc1cccc(-c2cnc3cc(-c4cccc(CC(=O)O)c4)ccn23)c1 [Example 11, {3-[3-(3-Acetylamino-phenyl)-imidazo[1,2-a]pyridin-7-yl]-phenyl}-acetic acid]"
10,< 1 µM,"CCNC(=O)Nc1cccc(-c2cnc3cc(-c4ccc(F)cc4)ccn23)c1 [Example 15, 1-Ethyl-3-{3-[7-(4-fluoro-phenyl)-imidazo[1,2-a]pyridin-3-yl]-phenyl}-urea formate salt]"
11,< 1 µM,"COC(=O)Nc1cccc(-c2cnc3cc(-c4ccc(F)cc4)ccn23)c1 [Example 16, {3-[7-(4-Fluoro-phenyl)-imidazo[1,2-a]pyridin-3-yl]-phenyl}-carbamic acid methyl ester formate salt]"
12,< 1 µM,"CC(=O)Nc1cc(C#N)cc(-c2cnc3cc(-c4cccc(CN5CCOCC5)c4)ccn23)c1 [Example 28, N-{3-Cyano-5-[7-(3-morpholin-4-ylmethyl-phenyl)-imidazo[1,2-a]pyridin-3-yl]-phenyl}-acetamide]"
13,< 1 µM,"CCNC(=S)Nc1cccc(-c2cnc3cc(-c4cccc(CN5CCN(C)CC5)c4)ccn23)c1 [Example 29, 1-Ethyl-3-(3-{7-[3-(4-methyl-piperazin-1-ylmethyl)-phenyl]-imidazo[1,2-a]pyridin-3-yl}-phenyl)-thiourea]"
14,< 1 µM,"CCNC(=O)Nc1cccc(-c2cnc3cc(-c4cccc(CN5CCCCC5)c4)ccn23)c1 [Example 35, 1-Ethyl-3-{3-[7-(3-piperidin-1-ylmethyl-phenyl)-imidazo[1,2-a]pyridin-3-yl]-phenyl}-urea]"
15,< 1 µM,"CCNC(=O)Nc1cccc(-c2cnc3cc(-c4cccc(C(=O)N5CCOCC5)c4)ccn23)c1 [Example 36, 1-Ethyl-3-(3-{7-[3-(morpholine-4-carbonyl)-phenyl]-imidazo[1,2-a]pyridin-3-yl}-phenyl)-urea]"
16,< 1 µM,"CCNC(=O)Nc1cccc(-c2cnc3cc(-c4ccc(C(C)(C)C(=O)OC)cc4)ccn23)c1 [Example 39, 2-(4-{3-[3-(3-Ethyl-ureido)-phenyl]-imidazo[1,2-a]pyridin-7-yl}-phenyl)-2-methyl-propionic acid methyl ester]"
17,< 1 µM,"CCNC(=O)Nc1cccc(-c2cnc3cc(-c4ccc(OC)nc4)ccn23)c1 [Example 43, 1-Ethyl-3-{3-[7-(6-methoxy-pyridin-3-yl)-imidazo[1,2-a]pyridin-3-yl]-phenyl}-urea]"
18,< 1 µM,"CCNC(=O)Nc1cccc(-c2cnc3cc(-c4ccnc(OC)c4)ccn23)c1 [Example 45, 1-Ethyl-3-{3-[7-(2-methoxy-pyridin-4-yl)-imidazo[1,2-a]pyridin-3-yl]-phenyl}-urea]"
19,< 1 µM,"CCNC(=O)Nc1cccc(-c2cnc3cc(-c4ccc(N5CCOCC5)nc4)ccn23)c1 [Example 49, 1-Ethyl-3-{3-[7-(6-morpholin-4-yl-pyridin-3-yl)-imidazo[1,2-a]pyridin-3-yl]-phenyl}-urea formate salt]"
20,< 1 µM,"CCNC(=O)Nc1cccc(-c2cnc3cc(-c4ccc(CCN5CCOCC5)cc4)ccn23)c1 [Example 56, 1-Ethyl-3-(3-{7-[4-(2-morpholin-4-yl-ethyl)-phenyl]-imidazo[1,2-a]pyridin-3-yl}-phenyl)-urea hydro-chloride salt]"
21,< 1 µM,"CCNC(=O)Nc1cccc(-c2cnc3cc(-c4ccc(N5CCNCC5)cc4)ccn23)c1 [Example 57, 1-Ethyl-3-{3-[7-(4-piperazin-1-yl-phenyl)-imidazo[1,2-a]pyridin-3-yl]-phenyl}-urea hydro-chloride salt]"
22,< 1 µM,"CCNC(=O)Nc1cccc(-c2cnc3cc(-c4ccc(N5CCCCC5)nc4)ccn23)c1 [Example 58, 1-Ethyl-3-{3-[7-(3,4,5,6-tetrahydro-2H-[1,2′]bipyridinyl-5′-yl)-imidazo[1,2-a]pyridin-3-yl]-phenyl}-urea hydro-chloride salt]"

# Same assay, conditions: Homo sapiens, LP-1, read-out: LP-1 pERK ELISA (μM)
row,IC50,SMILES
1,0.0021 µM,"O=C(NCC(F)(F)F)Nc1cccc(-c2cnc3cc(-c4ccc(F)cc4)ccn23)c1 [Example 59, 1-{3-[7-(4-fluoro-phenyl)-imidazo[1,2-a]pyridin-3-yl]-phenyl}-3-(2,2,2-trifluoro-ethyl)-urea]"
